In the supplement of paper PMC9663587:

Columns and labels:
YKL-5-124 [1] = compound: T1, C=CC(=O)Nc1ccc(C(=O)Nc2[nH]nc3c2CN(C(=O)N[C@H](CN(C)C)c2ccccc2)C3(C)C)cc1 [YKL-5-124]; assay: GR value, 72 h; higher = faster growth (1 = untreated, <0 = killing);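 further: breast cancer and non-malignant breast epithelial lines, nine half-log doses, viable cells counted by Hoechst and LIVE/DEAD dye imaging versus time-zero plates and DMSO controls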
THZ531 = compound: CN(C)C/C=C/C(=O)Nc1ccc(C(=O)N2CCC[C@@H](Nc3ncc(Cl)c(-c4c[nH]c5ccccc45)n3)C2)cc1 [THZ531]; assay: as above
Everolimus = compound: CO[C@H]1C[C@@H]2CC[C@@H](C)[C@@](O)(O2)C(=O)C(=O)N2CCCC[C@H]2C(=O)O[C@H]([C@H](C)C[C@@H]2CC[C@@H](OCCO)[C@H](OC)C2)CC(=O)[C@H](C)/C=C(\C)[C@@H](O)[C@@H](OC)C(=O)[C@H](C)C[C@H](C)/C=C/C=C/C=C/1C [Everolimus]
YKL-5-124 [2] = compound: T1, YKL-5-124
Bleomycin = compound: CC1=C(N=C(N=C1N)[C@H](CC(=O)N)NC[C@@H](C(=O)N)N)C(=O)N[C@@H]([C@H](C2=CN=CN2)OC3C(C(C(C(O3)CO)O)O)OC4C(C(C(C(O4)CO)O)OC(=O)N)O)C(=O)N[C@H](C)[C@H]([C@H](C)C(=O)N[C@@H]([C@@H](C)O)C(=O)NCCC5=NC(=CS5)C6=NC(=CS6)C(=O)NCCC[S+](C)C)O [Bleomycin]; conditions: main component drawn
Etoposide = compound: COc1cc([C@@H]2c3cc4c(cc3[C@@H](O[C@@H]3O[C@@H]5CO[C@@H](C)O[C@H]5[C@H](O)[C@H]3O)[C@H]3COC(=O)[C@H]23)OCO4)cc(OC)c1O [Etoposide]
Cisplatin = compound: N.N.Cl[Pt]Cl [Cisplatin]
Topotecan = compound: CC[C@@]1(O)C(=O)OCc2c1cc1n(c2=O)Cc2cc3c(CN(C)C)c(O)ccc3nc2-1 [Topotecan]
FMF-03-145-1 = compound: CCC(=O)Nc1ccc(C(=O)Nc2ccc(Nc3ncc4c(n3)N(C)c3ccc(C)cc3C(=O)N4C)cc2)cc1 [FMF-03-145-1]
[3] = compound: COc1cccc(OCCCN)c1-c1cc(Nc2cnc(C#N)cn2)n[nH]1
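Wherever GR50, 72 h is given: breast cancer and non-malignant breast epithelial cell lines, Deep Dye Drop or Dye Drop imaging, nine half-log doses, GR normalized to time-zero plates and DMSO-only controls.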

Row | Cell Line | GR value (YKL-5-124 [1]; 0.001 µM) [GR] | GR value (YKL-5-124 [1]; 0.003162 µM) [GR] | GR value (YKL-5-124 [1]; 0.01 µM) [GR] | GR value (YKL-5-124 [1]; 0.03162 µM) [GR] | GR value (YKL-5-124 [1]; 0.1 µM) [GR] | GR value (YKL-5-124 [1]; 0.3162 µM) [GR] | GR value (YKL-5-124 [1]; 1 µM) [GR] | GR value (YKL-5-124 [1]; 3.162 µM) [GR] | GR value (YKL-5-124 [1]; 10 µM) [GR] | GR value (THZ531; 0.0001 µM) [GR] | GR value (THZ531; 0.0003162 µM) [GR] | GR value (THZ531; 0.001 µM) [GR] | GR value (THZ531; 0.003162 µM) [GR] | GR value (THZ531; 0.01 µM) [GR] | GR value (THZ531; 0.03162 µM) [GR] | GR value (THZ531; 0.1 µM) [GR] | GR value (THZ531; 0.3162 µM) [GR] | GR value (THZ531; 1 µM) [GR] | GR50, 72 h (Everolimus) [µM] | GR50, 72 h (YKL-5-124 [2]) [µM] | GR50, 72 h (Bleomycin) [µM] | GR50, 72 h (Etoposide) [µM] | GR50, 72 h (Cisplatin) [µM] | GR50, 72 h (Topotecan) [µM] | GR50, 72 h (FMF-03-145-1) [µM] | GR50, 72 h [3] [µM]
1 | SUM159 | 0.554 | 0.292 | 0.169 | 0.149 | 0.136 | 0.0731 | 0.0819 | 0.0501 | -0.146 | 0.957 | 0.95 | 0.98 | 0.972 | 0.974 | 1.03 | 0.979 | 0.965 | 0.61 | > 10 | < 0.001 | 0.262 | 0.398 | 4.32 | 0.0182 | 0.00548 | 0.000711
2 | HCC1395 | 0.63 | 0.375 | 0.275 | 0.158 | 0.0856 | 0.0979 | 0.0594 | -0.0428 | -0.311 | 1.14 | 0.962 | 0.995 | 0.947 | 0.976 | 0.76 | 0.408 | -0.251 | -0.587 | 0.00256 | 0.00123 | 0.104 | 0.42 | 0.491 | 0.00275 | 0.00474 | 0.000487
3 | MDAMB436 | 0.84 | 0.563 | 0.533 | 0.432 | 0.409 | 0.3 | 0.405 | 0.291 | -0.0192 | 1.1 | 1.02 | 0.944 | 1.07 | 1.12 | 1.01 | 0.676 | 0.328 | 0.0201 | > 10 | 0.0324 | 0.855 | 0.26 | 0.417 | 0.00594 | 0.00578 | 0.000612
4 | HCC1143 | 0.423 | 0.398 | 0.336 | 0.241 | 0.223 | 0.183 | 0.142 | 0.0598 | -0.0734 | 0.974 | 0.976 | 1.03 | 0.957 | 1.02 | 0.937 | 0.689 | -0.125 | -0.228 | > 10 | < 0.001 | 0.0482 | 0.463 | 0.837 | 0.00941 | 0.00583 | 0.000582
5 | CAL51 | 0.748 | 0.59 | 0.391 | 0.327 | 0.314 | 0.236 | 0.216 | 0.165 | -0.0011 | 0.973 | 0.962 | 0.912 | 0.96 | 1.01 | 0.937 | 0.904 | 0.786 | 0.543 | > 10 | 0.00889 | 0.169 | 0.24 | 2.1 | 0.0191 | 0.00666 | 0.000588
6 | HCC1419 | 0.259 | 0.184 | 0.0618 | 0.124 | -0.0246 | -0.0463 | -0.0452 | -0.184 | -0.379 | 0.969 | 1.03 | 1.02 | 0.993 | 1.18 | 1.08 | 0.772 | 0.0179 | -0.31 | – | < 0.001 | 4.04 | 0.736 | 1.79 | 0.00719 | 0.00703 | 0.000648
7 | SUM149 | 0.351 | 0.226 | 0.228 | 0.141 | 0.132 | 0.114 | 0.0596 | 0.0431 | -0.104 | 0.986 | 0.996 | 0.931 | 1.03 | 1.05 | 0.999 | 0.963 | 0.598 | -0.539 | > 10 | < 0.001 | 0.039 | 0.127 | 0.571 | 0.00569 | 0.00558 | 0.000514
8 | SUM1315 | 0.771 | 0.514 | 0.439 | 0.478 | 0.393 | 0.264 | 0.133 | 0.0326 | -0.443 | 0.9 | 1.1 | 0.822 | 0.987 | 1.1 | 1.14 | 1.04 | 0.685 | -0.604 | – | 0.0168 | 0.214 | 0.29 | 1.28 | 0.0118 | 0.0047 | 0.000483
9 | CAL120 | 0.776 | 0.599 | 0.467 | 0.385 | 0.377 | 0.313 | 0.328 | 0.324 | 0.187 | 1.03 | 1.03 | 0.934 | 1.04 | 1.06 | 0.891 | 0.589 | 0.275 | -0.0063 | > 10 | 0.00898 | 1.69 | 0.48 | 2.93 | 0.00749 | 0.00643 | 0.000952
10 | MDAMB231 | 0.388 | 0.284 | 0.2 | 0.144 | 0.101 | 0.0485 | 0.0611 | 0.0322 | -0.182 | 1.03 | 0.974 | 0.936 | 1.02 | 0.939 | 0.975 | 0.751 | 0.443 | -0.275 | > 10 | < 0.001 | 6.32 | 0.704 | 2.41 | 0.0297 | – | 0.000148
11 | UACC812 | 0.609 | 0.318 | 0.142 | -0.122 | -0.106 | -0.151 | 0.0505 | -0.246 | -0.423 | 0.819 | 1.04 | 0.807 | 0.754 | 0.851 | 0.958 | 0.942 | 1.17 | 0.547 | – | < 0.001 | – | – | – | – | 0.00186 | –
12 | BT549 | 0.747 | 0.497 | 0.301 | 0.125 | 0.0904 | 0.0362 | -0.0144 | -0.0731 | -0.58 | 0.997 | 0.974 | 1.01 | 1.01 | 1.04 | 0.956 | 0.849 | 0.51 | -0.378 | > 10 | 0.00293 | 0.18 | 0.181 | 1.02 | 0.00847 | – | 2.27e-05
